Measurements published in patent publication US8765720B2, “Combination therapy for the treatment of multiple myeloma” (Cephalon, Inc., priority 2009, dated 2014).

Assays:
RPMI8226 cells [1] = experiment: Cell viability assay (MTS assay), RPMI8226 cells; type: cell-based, human; conditions: Homo sapiens, RPMI-8226, 48 h, read-out: decrease in cell viability
Experimental: Combination indices (CIs) were calculated separately for each combination. […] CIs between 0.9 and 1.1 were considered to indicate additive drug effects (31).

LAGκ-1A tumor = experiment: Intramuscular LAGκ-1A tumor xenograft model (serum hIgG, tumor volume); conditions: alone or together
Experimental: (§1) Six- to 8-week-old male severe combined immunodeficient (SCID) mice were obtained from the Jackson Laboratory (Bar Harbor, Me.) and maintained in a specific pathogen-free area in our animal resources facility. All animal studies were conducted according to protocols approved by the Institutional Animal Care and Use Committee. Animals were anesthetized with ketamine, xylazine, and isoflurane prior to surgery and were euthanized when tumors reached 2 cm in diameter.
(§2) Biopsy tissue was surgically implanted in the hind limbs of anesthetized SCID mice and passaged through succeeding generations (32).
(§3) Myeloma tumors (LAGκ-1A or LAGκ-1B) were excised from an anesthetized donor mouse, sectioned into 20 to 40 mm^3 pieces, and surgically implanted into the left superficial gluteal muscle of anesthetized naive SCID mice. Recipient mice received weekly injections of anti-asialo GM1 rabbit serum (Wako Bioproducts, Richmond, Va.) to further suppress immune activity. Mice were blindly assigned to one of the experimental groups, and treatment was initiated 7 to 21 days after tumor implantation. COMPOUND 1 was administered via oral gavage daily (0.5-5.0 mg/kg) or twice weekly (5-10 mg/kg). COMPOUND 1 was also administered twice weekly (W, F) via either IV injection (0.5-3.0 mg/kg) or oral gavage (10 mg/kg), as specified. Melphalan (1 mg/kg) was provided via weekly intraperitoneal (IP) injections (W). Bortezomib (0.5 mg/kg) was dispensed twice weekly (T, Th) via IV injection. Control treatment consisted of COMPOUND 1 diluent (3.2 mL 5% mannitol and 800 μL propylene glycol) alone.
Mice bearing MM tumors underwent weekly retro-orbital bleeds. Resulting samples were spun at 13,000 rpm for 30 minutes to isolate serum. The hIgG ELISA kit (Bethyl Laboratories, Montgomery, Tex.) was used according to the manufacturer's specifications. Absorbance at 450 nm with a reference wavelength of 550 nm was determined on a μQuant microplate spectrophotometer with KC Junior software (Bio-Tek Instruments, Winooski, Vt.). Data graphed are the mean±SEM with n=7-8 mice/group.
(§4) As a direct measurement of tumor growth, calipers were used to assess tumor volume weekly, and the formula for an ellipsoid volume was applied ( 4/3π×[width/2]^2×[length/2]).
(§5) Percent inhibition of tumor growth is represented as the tumor volume of the test drug group over the tumor volume of the untreated group (T/C). The optimal value is the minimal T/C ratio that reflects the maximal tumor growth inhibition achieved. The criterion for efficacy for the T/C ratio is ≦42%, according to National Cancer Institute (NCI) standard criteria (44).
(§6) Efficacy of drug therapy against tumors was standardized to the time (t) required for the untreated tumor to grow to a determined size based on the greatest difference in time to reach a tumor volume between the control and treatment group. This value can be represented as the growth delay (in days) between treated and control (tt−tc) (44).
(§7) Tumor growth and hIgG levels were analyzed in terms of treatment group means and standard error. Student's t-test was applied to determine the statistical significance of differences between treatment groups. Minimal significance level was P<0.05.

LAGκ-1B tumor = experiment: Intramuscular LAGκ-1B tumor xenograft model (tumor volume)
Experimental: as §1, §2
as §3, with “Melphalan (1 mg/kg) was provided via weekly intraperitoneal (IP) injections (W).” left out
as §4, §5, §6, §7

MM1S cells = experiment: Cell viability assay (MTS assay), MM1S cells; type: cell-based, human; conditions: Homo sapiens, MM1.S, single-agent bortezomib 0.5 nM, 48 hours, read-out: inhibition of cell viability
Experimental: In vitro synergy between COMPOUND 1 and bortezomib or melphalan was assessed using the median effect method of Chou and Talalay (30). Combination indices (CIs) were calculated separately for each combination. […] CIs between 0.9 and 1.1 were considered to indicate additive drug effects (31).

in vitro = conditions: human
Text: The human myeloma cell line RPMI8226 was obtained from American Type Culture Collection (Rockville, Md.). The MM1S myeloma cell line was provided by Dr. Steven Rosen (Northwestern University, Chicago, Ill.). Normal peripheral blood mononuclear cells (PBMCs) were isolated by Histopaque® density gradient centrifugation, according to the manufacturer's protocol (Sigma-Aldrich, St. Louis, Mo.). Myeloma cell lines and PBMCs were maintained in RPMI 1640 (Omega Scientific, Tarzana, Calif.) supplemented with 10% fetal bovine serum, 2 mM L-glutamine, 100 IU/mL penicillin, 100 μg/mL streptomycin, and essential amino acids in an atmosphere of 5% carbon dioxide (CO2) at 37° C.
Cells were seeded at 10^5 cells/100 μL/well in 96-well plates and incubated for 24 hours. RPMI8226 and MM1S cells were cultured in the presence of vehicle, COMPOUND 1, bortezomib, melphalan, COMPOUND 1+bortezomib, or COMPOUND 1+melphalan for 48 hours. After the incubation period, cell viability was quantified using the CellTiter 96® AQueous Non-Radioactive Cell Proliferation Assay (Promega, Madison, Wis.). Each well was treated with MTS (3-(4,5-dimethylthiazol-2-yl)-5-(3-carboxymethoxyphenyl)-2-(4-sulfophenyl)-2H-tetrazolium, inner salt) for 1 to 4 hours, after which absorbance was recorded at 490 nm. The quantity of formazan product as measured by absorbance at 490 nm is directly proportional to the number of living cells in culture.
In order for therapy with two or more PIs to be feasible in vivo, the combination must spare non-neoplastic cells. […] A healthy donor's PBMCs were cultured for 48 hours in the presence of COMPOUND 1 alone, bortezomib alone, or both agents together, and cell viability was quantified by MTS assay.

RPMI8226 cells [2] = experiment: Apoptotic assay by annexin V and propidium iodide staining; type: cell-based, human; conditions: 2.5 nM for each drug, 30 hours
Experimental: To quantify apoptosis in response to drug treatment, RPMI8226 cells (5×10^5 cells per well) were incubated with vehicle or PIs at 37° C. and 5% CO2 for 30 hours. As a positive control, cells were incubated with 250 ng/mL of actinomycin D for 24 or 48 hours. Cells were then washed twice with phosphate-buffered saline, resuspended in binding buffer (100 mM HEPES/NaOH, pH 7.5 containing 1.4 M NaCl and 25 mM CaCl2), and stained with fluorescein isothiocyanate (FITC)-conjugated annexin V and with the fluorescent dye propidium iodide (PrI), according to the manufacturer's protocol (BioVision, Mountain View, Calif.). For each drug treatment, 1×10^5 gated events were recorded. Cells negative for both PI and annexin V staining were considered live; annexin V-positive, PrI-negative cells were considered early apoptotic; annexin V-positive, PrI-positive cells were considered late apoptotic. Flow cytometric analyses were performed using a Beckman Coulter FC500 cytometer with Cytomics CXP software (Beckman Coulter, Fullerton, Calif.).

[3] = tested on: apoptosis-inducing factor (AIF); experiment: Immunohistochemical analysis of AIF expression in LAGκ-1B tumors; type: in vivo, SCID mice; conditions: COMPOUND 1 1 mg/kg, bortezomib 0.5 mg/kg, alone or both; tumors excised post-treatment
Experimental: LAGκ-1B tumors were fixed in 4% paraformaldehyde and cut into 5 μm sections. Briefly, sections were blocked with Tris-buffered saline with 0.05% Tween-20 (TBST) and 3% BSA for 1 hour at room temperature and then incubated overnight with a rabbit antibody against AIF (Sigma, St. Louis, Mo.). The sections were washed three times with TBST and treated with horse radish […] anti-rabbit antibody (KPL, Gaithersburg, Md.) diluted 1:500 in TBST at room temperature for 2 hours. The slides were washed three times in TBST and placed in 3-amino-9-ethylcarbazole (AEC) buffer for 5 minutes, and color was detected using an AEC kit (Dako, Glostrup, Denmark). Staining was documented using an Olympus BX51 microscope (Olympus Imaging America Inc., Center Valley, Pa.) and analyzed by Microsuite Biological Suite program (Olympus BX51).

CD138-negative MM cells = conditions: single agent; cited from earlier work
[4] = bortezomib 0.5 mg/kg IV, COMPOUND 1 1 mg/kg IV, alone or together

SMILES	cytotoxicity at 40 µM (RPMI8226 cells [1]) [%]	serum hIgG levels and tumor volume vs vehicle (LAGκ-1A tumor; melphalan 1 mg/kg IP weekly, COMPOUND 1 1 mg/kg IV twice weekly, 3 weeks)	tumor volume (LAGκ-1B tumor; melphalan 3 mg/kg IP weekly, COMPOUND 1 1 mg/kg IV twice weekly, alone or together, three weeks)	cytotoxicity at 0.0005 µM (MM1S cells) [%]	viability at 48 h, 9 nM (in vitro) [%]	proportion of cells in early apoptosis (PrI−/Annexin V+) (RPMI8226 cells [2])	serum hIgG levels and tumor volume vs vehicle (LAGκ-1A tumor; COMPOUND 1 1 mg/kg IV, bortezomib 0.5 mg/kg IV, twice weekly)	days to tumor progression (LAGκ-1B tumor; [4]) [days]	survival longer than vehicle-treated mice (LAGκ-1B tumor; [4]) [%]	tumor growth vs vehicle (LAGκ-1B tumor; bortezomib 0.5 mg/kg IV, COMPOUND 1 1 mg/kg IV, alone or together, combination after 21 days P=0.0014)	drug-related / toxicity-related deaths (LAGκ-1B tumor; mouse, in vivo)	AIF expression vs vehicle-treated tumors [3]	effect on growth of CD138-negative MM cells (CD138-negative MM cells)
N[C@@H](Cc1ccc(N(CCCl)CCCl)cc1)C(=O)O [melphalan, 4-[bis(2-chloroethyl)amino]-L-phenylalanine, reference compound]	~30	no effect	partially inhibited										
CC(C)C[C@H](NC(=O)[C@H](Cc1ccccc1)NC(=O)c1cnccn1)B(O)O [bortezomib, [(1R)-3-methyl-1-({(2S)-3-phenyl-2-[(pyrazin-2-ylcarbonyl)amino]propanoyl}amino)butyl]boronic acid, reference compound]				~16	~85	17.5 % of cells	only partially inhibited	35	20	only modestly suppresses	one death each	elevated AIF expression	little effect
